Source: patent US6372728B1, “Formulation for treatment of osteoporosis” (AstraZeneca AB, priority 1997, dated 2002)
Like-named read-outs stand apart in the source and are kept apart here.

How the values were obtained:
[1] = test system: bone resorption in the TPTX rats; conditions: TPTX rat; for decrease in blood levels of Ca2+ (FIG. 2): 0.01-5 mgP/kg
Protocol: Female Spraque-Dawley rats from Molegaards Breeding Centre, Skensved, Denmark were used in the experiments. The animals were kept three by three in Macrolon cages, with free access to standard rat food pellets and tap water during the whole experiment. TPTX (Thyroparathyroidectomy) was preformed during anaesthesia with xylazine (Rompun®, 20 mg/ml, 0.25 ml/kg, intraperitoneally (i.p.)) and ketamine (Ketalar®, 50 mg/ml, 2.0 ml/kg, i.p.). After TPTX all rats were supplemented with 4 μg/kg thyroxin subcutaneously three times a week. TPTX adequacy was checked by determination of blood levels of Ca^2+ in a blood samples obtained from the vein of the tail 5-6 days after surgery. TPTX was considered successful if blood Ca^2+ was ≦80% of the concentration found in the rats before surgery.
Bone resorption in the TPTX rats was stimulated by the arotinoid ethyl p-[(E)-2-(5,6,7,8-tetrahydro-5,5,8,8-tetramethyl-2-naphtyl)penyl]-benzoate (RO 13-6298, a gift from Hoffman-La Roche AG, Basel, Switzerland). RO 13-6298 was administered subcutaneously once daily (100 μg/kg in 1 ml/kg solved in polyethylene glycol 300 containing 10% ethanol) for three consecutive days (days 1, 2 and 3), day 1 being five to six days after TPTX.

[2] = taken either concurrently with or 2 hours after breakfast; cited from earlier work

NCCCC(O)(P(=O)(O)O)P(=O)(O)O [alendronate, 4-amino-1-hydroxybutylidene-1,1-biphosphonic acid]
decrease of blood levels of Ca2+ compared to rats treated with only saline ([1]; 24 hours after the third oral dose, 1 mgP/kg, dissolved in saline (0.9% NaCl), free access to food): no significant decrease | decrease in blood levels of Ca2+ (FIG. 2) ([1]; saline i.v.): dose-dependent decrease | decrease in blood levels of Ca2+ (FIG. 2) ([1]; saline p.o.): dose-dependent decrease | impairment of availability [2]: > 85%
